Test results taken from US9598387B2 (Southern Research Institute, priority 2012, dated 2017).

How the values were obtained:
[1] = target: human D2-long dopamine receptor (Homo sapiens (Human), UniProt P14416); test: Radioligand binding (125I-IABN competition), D2; conditions: HEK cell membranes expressing human D2-long
Protocol: (§1) The affinities of the target compounds were determined using radioligand binding experiments. […] Competition curves were modeled for a single site. Data from competition dose-response curves were analyzed using Tablecurve program (Jandel). IC50 values were converted to equilibrium dissociation constants (Ki values) using the Cheng and Prusoff correction.

[2] = target: human D3 dopamine receptor (Homo sapiens (Human), UniProt P35462); test: Radioligand binding (125I-IABN competition), D3; conditions: for Ki: 125I-IABN competition, HEK cell membranes expressing human D3; for D2/D3 (D3 selectivity ratio, D2 Ki/D3 Ki): calculated D2 Ki/D3 Ki
Chain of human D3 dopamine receptor (P35462 whole entry): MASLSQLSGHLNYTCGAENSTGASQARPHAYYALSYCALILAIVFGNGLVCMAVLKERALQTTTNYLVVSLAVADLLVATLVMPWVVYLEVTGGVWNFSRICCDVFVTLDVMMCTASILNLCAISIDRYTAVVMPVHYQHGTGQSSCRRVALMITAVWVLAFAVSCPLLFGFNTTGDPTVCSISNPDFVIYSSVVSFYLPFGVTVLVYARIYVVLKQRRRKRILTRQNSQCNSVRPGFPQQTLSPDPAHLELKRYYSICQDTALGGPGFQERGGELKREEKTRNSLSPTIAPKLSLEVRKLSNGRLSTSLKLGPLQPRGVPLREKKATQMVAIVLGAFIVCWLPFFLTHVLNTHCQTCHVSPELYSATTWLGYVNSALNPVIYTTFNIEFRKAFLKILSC
Protocol: as §1

Chain of human D2-long dopamine receptor (P14416 whole entry): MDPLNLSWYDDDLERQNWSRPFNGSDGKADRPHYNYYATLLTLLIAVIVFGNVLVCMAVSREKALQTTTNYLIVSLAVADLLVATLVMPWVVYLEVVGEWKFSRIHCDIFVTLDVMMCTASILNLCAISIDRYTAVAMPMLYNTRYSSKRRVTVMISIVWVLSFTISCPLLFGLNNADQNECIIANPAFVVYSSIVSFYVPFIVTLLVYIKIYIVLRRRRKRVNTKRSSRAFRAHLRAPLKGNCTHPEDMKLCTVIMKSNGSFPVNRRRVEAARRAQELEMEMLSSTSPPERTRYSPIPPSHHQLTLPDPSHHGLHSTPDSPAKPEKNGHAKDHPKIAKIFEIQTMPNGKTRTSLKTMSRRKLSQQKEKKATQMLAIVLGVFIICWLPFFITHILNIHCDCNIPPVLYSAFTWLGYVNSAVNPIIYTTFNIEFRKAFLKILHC

| SMILES | Ki [1] [nM] | Ki [2] [nM] | D2/D3 (D3 selectivity ratio, D2 Ki/D3 Ki) [2] |
| --- | --- | --- | --- |
| Cc1cccc(N2CCN(C(=O)NCCCCN3CCN(c4cc(C(F)(F)F)nc(C(C)(C)C)n4)CC3)CC2)c1C [Compound 24, N-(4-(4-(2-(tert-Butyl)-6-(trifluoromethyl)pyrimidin-4-yl)piperazin-1-yl)butyl)-4-(2,3-dimethylphenyl)piperazine-1-carboxamide] | 1180 ± 265 | 29.9 ± 5.6 | 39 |
| CC(C)(C)c1nc(N2CCN(CCCCNC(=O)N3CCN(c4ccccc4C#N)CC3)CC2)cc(C(F)(F)F)n1 [Compound 25, N-(4-(4-(2-(tert-Butyl)-6-(trifluoromethyl)pyrimidin-4-yl)piperazin-1-yl)butyl)-4-(2-cyanophenyl)piperazine-1-carboxamide] | 385 ± 58.5 | 16.6 ± 2.2 | 23 |
| CC(C)(C)c1nc(N2CCN(CCCCNC(=O)N3CCN(c4cccc(C(F)(F)F)c4)CC3)CC2)cc(C(F)(F)F)n1 [Compound 27, N-(4-(4-(2-(tert-Butyl)-6-(trifluoromethyl)pyrimidin-4-yl)piperazin-1-yl)butyl)-4-(3-(trifluoromethyl)phenyl)piperazine-1-carboxamide] | 1050 ± 95.7 | 29.6 ± 3.2 | 35 |
| CC(C)(C)c1nc(N2CCN(CCCCNC(=O)N3CCN(c4ccc(C(F)(F)F)cc4)CC3)CC2)cc(C(F)(F)F)n1 [Compound 28, N-(4-(4-(2-(tert-Butyl)-6-(trifluoromethyl)pyrimidin-4-yl)piperazin-1-yl)butyl)-4-(4-(trifluoromethyl)phenyl)piperazine-1-carboxamide] | 428 ± 102 | 19.4 ± 4.8 | 22 |
| CC(C)(C)c1nc(N2CCN(CCCCNC(=O)N3CCN(c4ccncc4)CC3)CC2)cc(C(F)(F)F)n1 [Compound 31, N-(4-(4-(2-(tert-Butyl)-6-(trifluoromethyl)pyrimidin-4-yl)piperazin-1-yl)butyl)-4-(pyridin-4-yl)piperazine-1-carboxamide] | 97.4 ± 21.7 | 2.6 ± 0.3 | 38 |
| CC(C)(C)c1nc(N2CCN(CCCCNC(=O)N3CCN(c4cnccn4)CC3)CC2)cc(C(F)(F)F)n1 [Compound 33, N-(4-(4-(2-(tert-Butyl)-6-(trifluoromethyl)pyrimidin-4-yl)piperazin-1-yl)butyl)-4-(pyrazin-2-yl)piperazine-1-carboxamide] | 463 ± 55.1 | 8.6 ± 1.8 | 54 |
| CC(C)(C)c1nc(N2CCN(CCCCNC(=O)N3CCN(c4ccnc5ccccc45)CC3)CC2)cc(C(F)(F)F)n1 [Compound 34, N-(4-(4-(2-(tert-Butyl)-6-(trifluoromethyl)pyrimidin-4-yl)piperazin-1-yl)butyl)-4-(quinolin-4-yl)piperazine-1-carboxamide] | 524 ± 42.2 | 12.7 ± 2.5 | 41 |
| CC(C)(C)c1nc(N2CCN(CCCCNC(=O)N3CCN(C4CC4)CC3)CC2)cc(C(F)(F)F)n1 [Compound 35, N-(4-(4-(2-(tert-Butyl)-6-(trifluoromethyl)pyrimidin-4-yl)piperazin-1-yl)butyl)-4-cyclopropylpiperazine-1-carboxamide] | 331 ± 51.9 | 12.8 ± 2.3 | 26 |
| CC(C)(C)c1nc(N2CCN(CCCCNC(=O)N3CCN(Cc4ccccc4)CC3)CC2)cc(C(F)(F)F)n1 [Compound 36, 4-Benzyl-N-(4-(4-(2-(tert-butyl)-6-(trifluoromethyl)pyrimidin-4-yl)piperazin-1-yl)butyl)piperazine-1-carboxamide] | 530 ± 45 | 16.7 ± 4.4 | 32 |
| CC(C)(C)c1nc(N2CCN(CCCCNC(=O)N3CCN(C(=O)c4ccccc4)CC3)CC2)cc(C(F)(F)F)n1 [Compound 37, 4-Benzoyl-N-(4-(4-(2-(tert-butyl)-6-(trifluoromethyl)pyrimidin-4-yl)piperazin-1-yl)butyl)piperazine-1-carboxamide] | 998 ± 252 | 29 ± 2.4 | 34 |
| CC(C)(C)c1nc(N2CCN(CCCCNC(=O)N3CC(c4ccncc4)C3)CC2)cc(C(F)(F)F)n1 [Compound 38, N-(4-(4-(2-(tert-Butyl)-6-(trifluoromethyl)pyrimidin-4-yl)piperazin-1-yl)butyl)-3-(pyridin-4-yl)azetidine-1-carboxamide] | 605 ± 62 | 3.5 ± 0.7 | 173 |
| CC(C)(C)c1nc(N2CCN(CCCCNC(=O)N3CCc4ccccc4C3)CC2)cc(C(F)(F)F)n1 [Compound 41, N-(4-(4-(2-(tert-Butyl)-6-(trifluoromethyl)pyrimidin-4-yl)piperazin-1-yl)butyl)-3,4-dihydroisoquinoline-2(1H)-carboxamide] | 490 ± 70 | 22.9 ± 5 | 21 |
| CC(C)(C)c1nc(N2CCN(CCCCNC(=O)N3CCc4ccccc4CC3)CC2)cc(C(F)(F)F)n1 [Compound 42, N-(4-(4-(2-(tert-Butyl)-6-(trifluoromethyl)pyrimidin-4-yl)piperazin-1-yl)butyl)-4,5-dihydro-1H-benzo[d]azepine-3(2H)-carboxamide] | 646 ± 1.5 | 2.3 ± 0.3 | 281 |
| CC(C)(C)c1nc(N2CCN(CCCCNC(=O)N3CCN(c4ccccc4-c4ccccc4)CC3)CC2)cc(C(F)(F)F)n1 [Compound 43, 4-([1,1′-Biphenyl]-2-yl)-N-(4-(4-(2-(tert-butyl)-6-(trifluoromethyl)pyrimidin-4-yl)piperazin-1-yl)butyl)piperazine-1-carboxamide] | 1020 ± 75.6 | 15 ± 3.1 | 68 |
| CC(C)(C)c1nc(N2CCN(CCCCNC(=O)N3CCN(c4cccc(-c5ccccc5)c4)CC3)CC2)cc(C(F)(F)F)n1 [Compound 44, 4-([1,1′-Biphenyl]-3-yl)-N-(4-(4-(2-(tert-butyl)-6-(trifluoromethyl)pyrimidin-4-yl)piperazin-1-yl)butyl)piperazine-1-carboxamide] | 1110 ± 104 | 49.3 ± 11.2 | 22 |
| CC(C)(C)c1nc(N2CCN(CCCCNC(=O)N3CCN(c4ccc(-c5ccccc5)cc4)CC3)CC2)cc(C(F)(F)F)n1 [Compound 45, 4-([1,1′-Biphenyl]-4-yl)-N-(4-(4-(2-(tert-butyl)-6-(trifluoromethyl)pyrimidin-4-yl)piperazin-1-yl)butyl)piperazine-1-carboxamide] | 621 ± 143 | 25.1 ± 5.5 | 25 |
| Cc1cc(N2CCN(CCCCNC(=O)N3CCN(S(=O)(=O)c4ccccc4)CC3)CC2)nc(C(C)(C)C)n1 [Compound 46, N-(4-(4-(2-(tert-Butyl)-6-methylpyrimidin-4-yl)piperazin-1-yl)butyl)-4-(phenylsulfonyl)piperazine-1-carboxamide] | 906 ± 169 | 31.9 ± 7.2 | 28 |
| CC(C)(C)c1nc(N2CCN(CCCCNC(=O)N3CCC(O)(c4ccccc4)CC3)CC2)cc(C(F)(F)F)n1 [Compound 49, N-(4-(4-(2-(tert-Butyl)-6-(trifluoromethyl)pyrimidin-4-yl)piperazin-1-yl)butyl)-4-hydroxy-4-phenylpiperidine-1-carboxamide] | 1270 ± 291 | 27 ± 3.9 | 47 |
| CC(C)(C)c1nc(N2CCN(CCCCNC(=O)N3CCC(Cc4ccccc4)CC3)CC2)cc(C(F)(F)F)n1 [Compound 50, 4-Benzyl-N-(4-(4-(2-(tert-butyl)-6-(trifluoromethyl)pyrimidin-4-yl)piperazin-1-yl)butyl)piperidine-1-carboxamide] | 603 ± 104 | 18.4 ± 2.6 | 33 |
| CC(C)(C)c1nc(N2CCN(CCCCNC(=O)N3CCC(Oc4ccccc4)CC3)CC2)cc(C(F)(F)F)n1 [Compound 51, N-(4-(4-(2-(tert-Butyl)-6-(trifluoromethyl)pyrimidin-4-yl)piperazin-1-yl)butyl)-4-phenoxypiperidine-1-carboxamide] | 1290 ± 248 | 44.1 ± 8.1 | 29 |
| CC(C)(C)c1nc(N2CCN(CCCCNC(=O)N3CCC(n4c(=O)[nH]c5ccccc54)CC3)CC2)cc(C(F)(F)F)n1 [Compound 53, N-(4-(4-(2-(tert-Butyl)-6-(trifluoromethyl)pyrimidin-4-yl)piperazin-1-yl)butyl)-4-(2-oxo-2,3-dihydro-1H-benzo[d]imidazol-1-yl)piperidine-1-carboxamide] | 713 ± 78.3 | 35.2 ± 8.2 | 20 |
| CC(C)(C)c1nc(N2CCN(CCCCNC(=O)N3CCc4[nH]c5ccc(C#N)cc5c4C3)CC2)cc(C(F)(F)F)n1 [Compound 54, N-(4-(4-(2-(tert-Butyl)-6-(trifluoromethyl)pyrimidin-4-yl)piperazin-1-yl)butyl)-8-cyano-3,4-dihydro-1H-pyrido[4,3-b]indole-2(5H)-carboxamide] | 1050 ± 149 | 40.3 ± 7.2 | 26 |
| CC(C)(C)c1cc(N2CCN(CCCCNC(=O)N3CCc4[nH]c5ccccc5c4C3)CC2)nc(C(C)(C)C)n1 [Compound 56, N-(4-(4-(2,6-Di-tert-butylpyrimidin-4-yl)piperazin-1-yl)butyl)-3,4-dihydro-1H-pyrido[4,3-b]indole-2(5H)-carboxamide] | 308 ± 29.9 | 9.5 ± 1.7 | 33 |
| CC(C)(C)c1nc(N2CCN(CCCCNC(=O)N3CCN(c4ccc(Cl)cc4)CC3)CC2)cc(C(F)(F)F)n1 [Compound 57, N-(4-(4-(2-(tert-Butyl)-6-(trifluoromethyl)pyrimidin-4-yl)piperazin-1-yl)butyl)-4-(4-chlorophenyl)piperazine-1-carboxamide] | 644 ± 6.6 | 35.5 ± 7.2 | 18 |
